Data: PubChem BioAssay AID1963865 (Molecular Pharmacology Branch, DTP, NCI, 2024)
Values joined by “and” are separate entries in the source; they are usually repeats but may differ in a detail not shown here. Identical values can stand only once.

Tested on: KRAS PDC multicell spheroid viability
Experiment: Anticancer human tumor 825966-067-R-J1-PDC patient-derived colon carcinoma cell line growth inhibition [KRAS2]
Conditions: for viability, T/C: stronger effect = lower value
How it was run: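 KRAS-mutant tumor cells were grown as spheroids with HUVEC endothelial cells and human MSCs as stroma. Targeted agents were tested alone and with KRAS pathway inhibitors. Doses started at or near clinical Cmax, or 10 microM, descending half-log.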

[1] = curve of first compound, second compound 0.1 µM
[2] = curve of first compound, second compound 0.316 µM
[3] = curve of first compound, second compound 1 µM
[4] = curve of first compound, second compound 3.16 µM
[5] = curve of first compound, second compound 10 µM
[6] = second compound 0.1 µM, first compound 0.0316 µM
[7] = second compound 0.1 µM, first compound 0.1 µM
[8] = second compound 0.1 µM, first compound 0.316 µM
[9] = second compound 0.1 µM, first compound 1 µM
[10] = second compound 0.1 µM, first compound 3.16 µM
[11] = second compound 0.1 µM, first compound 10 µM
[12] = second compound 0.316 µM, first compound 0.0316 µM
[13] = second compound 0.316 µM, first compound 0.1 µM
[14] = second compound 0.316 µM, first compound 0.316 µM
[15] = second compound 0.316 µM, first compound 1 µM
[16] = second compound 0.316 µM, first compound 3.16 µM
[17] = second compound 0.316 µM, first compound 10 µM
[18] = second compound 1 µM, first compound 0.0316 µM
[19] = second compound 1 µM, first compound 0.1 µM
[20] = second compound 1 µM, first compound 0.316 µM
[21] = second compound 1 µM, first compound 1 µM
[22] = second compound 1 µM, first compound 3.16 µM
[23] = second compound 1 µM, first compound 10 µM
[24] = second compound 3.16 µM, first compound 0.0316 µM
[25] = second compound 3.16 µM, first compound 0.1 µM
[26] = second compound 3.16 µM, first compound 0.316 µM
[27] = second compound 3.16 µM, first compound 1 µM
[28] = second compound 3.16 µM, first compound 3.16 µM
[29] = second compound 3.16 µM, first compound 10 µM
[30] = second compound 10 µM, first compound 0.0316 µM
[31] = second compound 10 µM, first compound 0.1 µM
[32] = second compound 10 µM, first compound 0.316 µM
[33] = second compound 10 µM, first compound 1 µM
[34] = second compound 10 µM, first compound 3.16 µM
[35] = second compound 10 µM, first compound 10 µM
[36] = curve of first compound, second compound 0.0316 µM
[37] = second compound 0.0316 µM, first compound 0.0316 µM
[38] = second compound 0.0316 µM, first compound 0.1 µM
[39] = second compound 0.0316 µM, first compound 0.316 µM
[40] = second compound 0.0316 µM, first compound 1 µM
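Also: spheroids exposed to compounds for 7 days.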
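For viability, T/C in this document: 100% = DMSO vehicle control viability.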

Row | Compound | IC50 [1] [nM] | IC50 [2] [nM] | IC50 [3] [nM] | IC50 [4] [nM] | viability, T/C [6] [%] | viability, T/C [7] [%] | viability, T/C [8] [%] | viability, T/C [9] [%] | viability, T/C [12] [%] | viability, T/C [13] [%] | viability, T/C [14] [%] | viability, T/C [15] [%] | viability, T/C [18] [%] | viability, T/C [19] [%] | viability, T/C [20] [%] | viability, T/C [21] [%] | viability, T/C [24] [%] | viability, T/C [25] [%] | viability, T/C [26] [%] | viability, T/C [27] [%] | also measured
1 | CC(C)NCC(C(=O)N1CCN(c2ncnc3c2C(C)CC3O)CC1)c1ccc(Cl)cc1 (configuration not stated) + COc1cc2nc(C)nc(NC(C)c3cc(N)cc(C(F)(F)F)c3)c2cc1OC1CCOC1 | 2500 | 2450 | 1740 | 1880 | 122 | 113 | 148 | 97.1 | 103 | 129 | 122 | 130 | 114 | 128 | 151 | 75.7 | 111 | 125 | 104 | 97.7 | IC50 [5]: < 31.6 nM; viability, T/C [10]: 39.4%; viability, T/C [11]: 11.2%; viability, T/C [16]: 29.7%; viability, T/C [17]: 8.59%; viability, T/C [22]: 37.4%; viability, T/C [23]: 7.58%; viability, T/C [28]: 10.9%; viability, T/C [29]: 5.94%; viability, T/C [30]: 22.4%; viability, T/C [31]: 5.84%; viability, T/C [32]: 3.69%; viability, T/C [33]: 1.56%; viability, T/C [34]: 2.14%; viability, T/C [35]: 3.53%
2 | CCN1CCN(Cc2ccc(Nc3ncc(F)c(-c4cc(F)c5nc(C)n(C(C)C)c5c4)n3)nc2)CC1 + C=CC(=O)N1CCN(c2nc(OCC3CCCN3C)nc3c2CCN(c2cccc4cccc(C)c24)C3)CC1CC#N | > 1000 | > 1000 | > 1000 | 397 | 108 | 165 | 198 | 123 | 119 | 86.5 | 160 | 115 | 102 | 166 | 167 | 112 | 133 | 125 | 61.6 | 2.39 | IC50 [36]: > 1000 nM; viability, T/C (second compound 0.0316 µM, first compound 0.00316 µM): 93.5%; viability, T/C (second compound 0.0316 µM, first compound 0.01 µM): 112%; viability, T/C [37]: 91%; viability, T/C [38]: 113%; viability, T/C [39]: 158%; viability, T/C [40]: 153%; viability, T/C (second compound 0.1 µM, first compound 0.00316 µM): 97.1%; viability, T/C (second compound 0.1 µM, first compound 0.01 µM): 114%; viability, T/C (second compound 0.316 µM, first compound 0.00316 µM): 103%; viability, T/C (second compound 0.316 µM, first compound 0.01 µM): 105%; viability, T/C (second compound 1 µM, first compound 0.00316 µM): 95.7%; viability, T/C (second compound 1 µM, first compound 0.01 µM): 110%; viability, T/C (second compound 3.16 µM, first compound 0.00316 µM): 83.7%; viability, T/C (second compound 3.16 µM, first compound 0.01 µM): 114%
3 | CCN1CCN(Cc2ccc(Nc3ncc(F)c(-c4cc(F)c5nc(C)n(C(C)C)c5c4)n3)nc2)CC1 |  |  |  |  |  |  |  |  |  |  |  |  |  |  |  |  |  |  |  |  | viability, T/C (compound 0.00316 µM): 98% [middle of 4 runs]; viability, T/C (compound 0.01 µM): 90.6% [middle of 5 runs]; viability, T/C (compound 0.1 µM): 95.5% [middle of 5 runs]; viability, T/C (compound 0.316 µM): 117% [middle of 5 runs]; IC50 (curve of compound): > 1000 nM
4 | O=C(c1cc(Cc2n[nH]c(=O)c3ccccc23)ccc1F)N1CCN(C(=O)C2CC2)CC1 + CNCc1ccccc1-c1csc(C(C)Nc2nc(C)nc3cc(OC)c(OC)cc23)c1 | > 10000 | > 10000 | > 10000 | < 31.6 | 102 | 90.9 | 81.1 | 88.5 | 90.8 | 87.2 | 92.6 | 87.7 | 112 | 90.3 | 87.8 | 91.1 | 9.5 | 28.8 | 40.8 | 15.5 | IC50 [5]: < 31.6 nM; viability, T/C [10]: 78.6%; viability, T/C [11]: 61.2%; viability, T/C [16]: 77.9%; viability, T/C [17]: 97.6%; viability, T/C [22]: 104%; viability, T/C [23]: 111%; viability, T/C [28]: 1.24%; viability, T/C [29]: 2.36%; viability, T/C [30]: 0.23%; viability, T/C [31]: 0.27%; viability, T/C [32]: 0.26%; viability, T/C [33]: 0.23%; viability, T/C [34]: 0.19%; viability, T/C [35]: 0.27%
5 | O=C(c1cc(Cc2n[nH]c(=O)c3ccccc23)ccc1F)N1CCN(C(=O)C2CC2)CC1 |  |  |  |  |  |  |  |  |  |  |  |  |  |  |  |  |  |  |  |  | viability, T/C (compound 0.1 µM): 88.5% [middle of 5 runs]; viability, T/C (compound 3.16 µM): 79.6% [middle of 5 runs]; IC50 (curve of compound): > 10000 nM
6 | C=CC(=O)N1CCN(c2nc(OCC3CCCN3C)nc3c2CCN(c2cccc4cccc(C)c24)C3)CC1CC#N (configuration not stated) |  |  |  |  |  |  |  |  |  |  |  |  |  |  |  |  |  |  |  |  | viability, T/C (compound 0.1 µM): 87.5% [middle of 17 runs]; IC50 (compound alone, run of 08/19/2021): > 3160 nM; IC50 (compound alone, run of 08/26/2021): > 3160 nM; IC50 (compound alone, run of 09/02/2021): > 3160 nM and 2390 nM
7 | CC1(C)CCC(CN2CCN(c3ccc(C(=O)NS(=O)(=O)c4ccc(NCC5CCOCC5)c([N+](=O)[O-])c4)c(Oc4cnc5[nH]ccc5c4)c3)CC2)=C(c2ccc(Cl)cc2)C1 + C=CC(=O)N1CCN(c2nc(OCC3CCCN3C)nc3c2CCN(c2cccc4cccc(C)c24)C3)CC1CC#N | 1790 | 1770 | 1810 | 347 | 96.7 | 72 | 98.6 | 96.3 | 93.8 | 88.8 | 87.9 | 93.4 | 98.6 | 103 | 100 | 104 | 89 | 78.2 | 54.7 | 10.2 | IC50 [36]: 1850 nM; viability, T/C [37]: 104%; viability, T/C [38]: 96%; viability, T/C [39]: 84.3%; viability, T/C [40]: 93%; viability, T/C (second compound 0.0316 µM, first compound 3.16 µM): 12.6%; viability, T/C (second compound 0.0316 µM, first compound 10 µM): 0.73%; viability, T/C [10]: 9.74%; viability, T/C [11]: 5.69%; viability, T/C [16]: 8.01%; viability, T/C [17]: 5.23%; viability, T/C [22]: 1.8%; viability, T/C [23]: 0.52%; viability, T/C [28]: 0.3%; viability, T/C [29]: 2.95%
8 | COC(=O)c1ccc2c(C(=Nc3ccc(N(C)C(=O)CN4CCN(C)CC4)cc3)c3ccccc3)c(O)[nH]c2c1 + CNCc1ccccc1-c1csc(C(C)Nc2nc(C)nc3cc(OC)c(OC)cc23)c1 | 567 | 1180 | 910 | < 31.6 | 84.2 | 82.4 | 77.7 | 23.2 | 62 | 86.3 | 97.5 | 58.4 | 75.7 | 78.2 | 87 | 47.3 | 23 | 38.6 | 0.57 | 0.22 | IC50 [5]: < 31.6 nM; viability, T/C [10]: 0.18%; viability, T/C [11]: 0.19%; viability, T/C [16]: 0.13%; viability, T/C [17]: 0.2%; viability, T/C [22]: 0.9%; viability, T/C [23]: 0.21%; viability, T/C [28]: 0.13%; viability, T/C [29]: 0.21%; viability, T/C [30]: 2.62%; viability, T/C [31]: 0.25%; viability, T/C [32]: 1.09%; viability, T/C [33]: 0.18%; viability, T/C [34]: 0.17%; viability, T/C [35]: 0.26%
